Experimental data published in ChEMBL document CHEMBL4765279, “Discovery of a novel series of imidazo[1',2':1,6]pyrido[2,3-d]pyrimidin derivatives as potent cyclin-dependent kinase 4/6 inhibitors” (Eur J Med Chem, 2020).
pIC50: −log10 of the molar value.

Legend:
CDK6/Cyclin D3 = CDK6/Cyclin D3 (Homo sapiens, UniProt Q00534); experiment: Inhibition of human full-length N-terminal GST tagged CDK6 (1 to 326 residues)/GST-tagged cyclinD3 (1 to 292 residues) expressed in baculovirus expression system using ULight-elF4E-binding protein 1 peptide as substrate measured after 30 mins by LANCE assay
CDK6/Cyclin D3, sequence (Q00534 whole entry, looked up, the tested form may be a part): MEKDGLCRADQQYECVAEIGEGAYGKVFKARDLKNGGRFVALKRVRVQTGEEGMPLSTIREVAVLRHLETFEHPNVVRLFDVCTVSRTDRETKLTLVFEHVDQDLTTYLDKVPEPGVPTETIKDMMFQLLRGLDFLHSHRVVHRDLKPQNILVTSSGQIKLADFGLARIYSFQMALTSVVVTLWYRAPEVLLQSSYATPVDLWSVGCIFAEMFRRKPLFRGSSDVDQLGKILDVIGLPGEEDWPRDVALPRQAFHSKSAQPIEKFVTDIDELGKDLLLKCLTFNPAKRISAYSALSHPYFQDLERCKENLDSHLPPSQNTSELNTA

CDK4/Cyclin D3 = CDK4/Cyclin D3 (Homo sapiens, UniProt P11802); experiment: Inhibition of recombinant human full-length N-terminal GST-fused CDK4 (1 to 303 residues)/GST-tagged CyclinD3 (1 to 292 residues) expressed in baculovirus expression system using ULight-elF4E-binding protein 1 peptide as substrate measured after 30 mins by LANCE assay
CDK4/Cyclin D3, sequence (P11802 whole entry, the tested form may be a part): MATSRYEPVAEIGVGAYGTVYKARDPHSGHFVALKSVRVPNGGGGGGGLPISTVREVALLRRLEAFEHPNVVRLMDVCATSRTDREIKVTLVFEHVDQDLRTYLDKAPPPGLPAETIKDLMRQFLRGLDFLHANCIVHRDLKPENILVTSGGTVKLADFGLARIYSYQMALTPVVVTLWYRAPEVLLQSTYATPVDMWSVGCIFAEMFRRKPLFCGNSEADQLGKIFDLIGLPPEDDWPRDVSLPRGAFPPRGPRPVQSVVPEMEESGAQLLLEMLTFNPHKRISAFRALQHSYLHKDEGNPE
CDK4/Cyclin D3, sequence (P30281 whole entry, further chain, the tested form may be a part): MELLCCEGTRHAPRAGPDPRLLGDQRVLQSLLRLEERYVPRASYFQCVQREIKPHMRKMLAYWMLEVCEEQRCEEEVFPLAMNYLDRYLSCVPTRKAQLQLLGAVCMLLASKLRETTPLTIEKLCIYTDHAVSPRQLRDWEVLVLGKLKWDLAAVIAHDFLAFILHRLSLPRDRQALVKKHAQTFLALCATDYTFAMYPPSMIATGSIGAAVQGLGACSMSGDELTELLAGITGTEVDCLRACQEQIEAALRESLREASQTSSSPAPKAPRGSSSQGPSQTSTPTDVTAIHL

U-87 MG = experiment: Antiproliferative activity against human U-87 MG cells assessed as cell growth inhibition measured after 4 to 6 days by celltiter-glo luminescent cell viability assay; type: functional, cell-based, U-87MG ATCC
COLO 205 [1] = experiment: Antiproliferative activity against human COLO 205 cells assessed as cell growth inhibition measured after 4 to 6 days by celltiter-glo luminescent cell viability assay; type: functional, cell-based
MDA-MB-468 = experiment: Antiproliferative activity against human MDA-MB-468 cells assessed as cell growth inhibition measured after 4 to 6 days by celltiter-glo luminescent cell viability assay; type: functional, cell-based
COLO 205 [2] = experiment: Cell cycle arrest in human COLO 205 cells assessed as accumulation at G0/G1 phase at 200 nM measured after 24 hrs by propidium iodide staining based flow cytometry relative to control; type: functional

Row | SMILES | pIC50 (CDK6/Cyclin D3) | pIC50 (CDK4/Cyclin D3) | pIC50 (U-87 MG) | pIC50 (COLO 205 [1]) | pIC50 (MDA-MB-468) | Activity (COLO 205 [2])
1 | Cc1cn2c(n1)c(C#N)c(C)c1cnc(Nc3ccc(Cl)cc3)nc12 | 6.55 | 6.57 |  |  |  | 
2 | CC(=O)c1c(C)c2cnc(Nc3ccc(N4CCNCC4)cn3)nc2n(C2CCCC2)c1=O [PALBOCICLIB] |  |  | 6.46 | 6.52 | 5.27 | 95.7%
3 | CC(=O)c1c(C)c2cnc(Nc3ccc4c(n3)CCNC4)nc2n2cc(C(C)C)nc12 | 7.64 | 8.00 | 5.43 | 5.24 |  | 

The remaining compounds from weak to strong by pIC50 (CDK6/Cyclin D3), led by results:

Row | pIC50 (CDK6/Cyclin D3) | pIC50 (CDK4/Cyclin D3) | pIC50 (U-87 MG) | pIC50 (COLO 205 [1]) | pIC50 (MDA-MB-468) | SMILES | Activity (COLO 205 [2])
4 | 6.96 | 6.91 |  |  |  | Cc1cn2c(n1)c(C#N)c(C)c1cnc(Nc3ccc(N4CCOCC4)cc3)nc12 | 
5 | 7.47 | 7.58 |  |  |  | Cc1cn2c(n1)c(C#N)c(C)c1cnc(Nc3ccc(N4CCNCC4)cc3)nc12 | 
6 | 7.99 | 8.44 | 5.90 | 6.23 |  | CC(=O)c1c(C)c2cnc(Nc3ccc(N4CCNCC4)cc3)nc2n2cc(C)nc12 | 
7 | 8.43 | 8.43 | 6.54 | 6.54 |  | CC(=O)c1c(C)c2cnc(Nc3ccc(N4CCNCC4)cn3)nc2n2cc(C(C)C)nc12 | 
